The test concerns the target T1, human GPR119 (Homo sapiens, UniProt Q8TDV5).
T1 construct: expressed in transfected cells
T1 sequence (Q8TDV5 1-335): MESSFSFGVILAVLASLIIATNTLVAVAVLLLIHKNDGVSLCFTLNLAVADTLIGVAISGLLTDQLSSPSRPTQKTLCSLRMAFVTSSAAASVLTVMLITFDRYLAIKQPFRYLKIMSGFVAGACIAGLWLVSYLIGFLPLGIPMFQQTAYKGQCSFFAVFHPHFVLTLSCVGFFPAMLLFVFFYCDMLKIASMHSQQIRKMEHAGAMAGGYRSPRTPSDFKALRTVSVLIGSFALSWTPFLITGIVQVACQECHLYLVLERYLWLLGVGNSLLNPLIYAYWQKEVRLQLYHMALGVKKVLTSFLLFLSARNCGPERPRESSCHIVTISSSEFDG
Kind of test: Cyclic AMP Assay in Stable Cell Line (HTRF). In kind it is cell-based. Conditions: Flp-In-CHO-hGPR119 cells, intracellular cAMP, 30 minutes at 37° C., 1 mM IBMX. As for the experimental part: Flp-In-CHO cells (Invitrogen, Cat. #R758-07) are maintained in Ham's F12 medium supplemented with 10% fetal bovine serum, 1% antibiotic mixture and 2 mM L-glutamine. The cells are transfected with a DNA mixture containing human GPR119 in pcDNA5/FRT vector and the pOG44 vector (1:9) using Fugene6 (Roche), according to the manufacturer's instruction. After 48 hours, the medium is changed to medium supplemented with 400 μg/ml hygromycin B to initiate the selection of stably transfected cells.
To test the activity of compounds of the invention, Flp-In-CHO-hGPR119 cells are harvested and resuspended in DMEM plus 3% lipid-depleted fetal bovine serum. Forth μl of cells are plated in 384 well plates at a density of 15,000 cells/well. IBMX (3-isobutyl-1-methyl-xanthine) is added to the cells to a final concentration of 1 mM, followed by the addition of 500 nl of the compound to be tested. The cells are incubated at 37° C. for 30 minutes. Equal volume (20 μl) of the HTRF reagents, anti-cAMP-Cryptate and cAMP-XL665, are added to the cells. The plates are incubated at room temperature for 1 hour and read on a HTRF reader according to the manufacturer's instruction.
In general, EC50 refers to the concentration that produces a half-maximal response. High values mean a less potent agent, low ones a more potent agent. Consider `CS(=O)(=O)N1CCC(c2ccc(OC3CCN(Cc4nc(C(F)(F)F)no4)CC3)c(F)c2)CC1` [Example B6], for which the EC50 was 37 nM.
For `CS(=O)(=O)N1CCC(c2ccc(OC3CCN(Cc4nc(C(F)(F)F)no4)CC3)cc2F)CC1` [Example B7] the value was 16 nM; for `CC(C)(C)c1noc(CN2CC(Oc3c(F)cc(C4CCN(S(C)(=O)=O)CC4)cc3F)C2)n1` [Example B8], 286 nM; for `CC(C)c1noc(CN2CC(Oc3c(F)cc(C4CCN(S(C)(=O)=O)CC4)cc3F)C2)n1` [Example B9], 76 nM.
Compound `CS(=O)(=O)N1CCC(c2cc(F)c(OC3CN(Cc4nc(C5CC5)no4)C3)c(F)c2)CC1` [Example B10] had a concentration giving a half-maximal response (EC50) of 131 nM.
Take `CC(C)c1nc(CN2CC(Oc3c(F)cc(C4CCN(S(C)(=O)=O)CC4)cc3F)C2)no1` [Example B11]: it took 397 nM to reach a half-maximal effect (EC50).
The compound `CS(=O)(=O)N1CCC(c2cc(F)c(OC3CN(Cc4nc(C(F)(F)F)no4)C3)c(F)c2)CC1` [Example B12] registered a half-maximal effective concentration (EC50) of 55 nM.
For `CC(F)(F)c1noc(CN2CC(Oc3c(F)cc(C4CCN(S(C)(=O)=O)CC4)cc3F)C2)n1` [Example B13], the EC50 amounted to 108 nM.
For `Cn1nc(C(F)(F)F)cc1CN1CCC(Oc2c(F)cc(C3CCN(S(C)(=O)=O)CC3)cc2F)CC1` [Example B14] the value was 70 nM; for `Cn1nc(C(F)(F)F)cc1CN1CC(Oc2c(F)cc(C3CCN(S(C)(=O)=O)CC3)cc2F)C1` [Example B15], 97 nM; for `CS(=O)(=O)N1CCC(c2cc(F)c(OC3CCN(Cc4nc(C(F)(F)F)cs4)CC3)c(F)c2)CC1` [Example B16], 9 nM.
For the compound `CS(=O)(=O)N1CCC(c2cc(F)c(OC3CN(Cc4nc(C(F)(F)F)cs4)C3)c(F)c2)CC1` [Example B17], the EC50 was determined as 74 nM.
As for `CS(=O)(=O)N1CCC(c2cc(F)c(OC3CCN(Cc4csc(C(F)(F)F)n4)CC3)c(F)c2)CC1` [Example B18], the concentration for a half-maximal effect (EC50) was 52 nM.
`CS(=O)(=O)N1CCC(c2cc(F)c(OC3CN(Cc4csc(C(F)(F)F)n4)C3)c(F)c2)CC1` [Example B19] yielded an EC50 of 448 nM.
For `Cn1nc(C(F)(F)F)nc1CN1CCC(Oc2c(F)cc(C3CCN(S(C)(=O)=O)CC3)cc2F)CC1` [Example B20] the value was 208 nM; for `Cn1nc(C(F)(F)F)nc1CN1CC(Oc2c(F)cc(C3CCN(S(C)(=O)=O)CC3)cc2F)C1` [Example B21], 244 nM.
The figure for `CS(=O)(=O)N1CCC(c2cc(F)c(OC3CCN(Cc4noc(C(F)(F)F)n4)CC3)c(F)c2)CC1` [Example B22] is 443 nM.
With `CS(=O)(=O)N1CCC(c2cc(F)c(OC3CN(Cc4noc(C(F)(F)F)n4)C3)c(F)c2)CC1` [Example B23], a half-maximal effect (EC50) was put at 210 nM.
In the case of `CC(C)c1noc(CN2CCC(Oc3c(F)cc(C4CCN(S(C)(=O)=O)CC4)cc3F)CC2)n1` [Example B24], the EC50 was found to be 6 nM.
The figure for `CS(=O)(=O)N1CCC(c2ccc(OC3CCN(Cc4nc(C(F)(F)F)no4)CC3)cc2)CC1` [Example B26] is 37 nM.
In the case of `CS(=O)(=O)N1CCC(c2ccc(OC3CCN(Cc4nc(C(F)(F)F)no4)CC3)c(F)c2F)CC1` [Example B27], the EC50 came out at 11 nM.
Turning to `CS(=O)(=O)N1CCC(c2cc(F)c(OC3CCN(Cc4nc(C(F)(F)F)no4)CC3)cc2F)CC1` [Example B28], the EC50 worked out at 5 nM.
For the compound `CS(=O)(=O)N1CCC(c2c(F)cc(OC3CCN(Cc4nc(C(F)(F)F)no4)CC3)cc2F)CC1` [Example B29], the EC50 was 50 nM.
For `CC(c1nc(C(F)(F)F)no1)N1CCC(Oc2c(F)cc(C3CCN(S(C)(=O)=O)CC3)cc2F)CC1` (stereo not shown) [Example B30] the value was 78 nM.
The figure for `CS(=O)(=O)N1CCC(c2cc(F)c(OC3CCN(Cc4ccc(C(F)(F)F)cc4)C3)c(F)c2)CC1` (stereo not shown) [Example C1, 4-(3,5-Difluoro-4-(1-(4-(trifluoromethyl)benzyl)pyrrolidin-3-yloxy)phenyl)-1-(methylsulfonyl)piperidine] is 144 nM; for `CS(=O)(=O)N1CCC(c2cc(F)c(OC3CCCN(Cc4ccc(C(F)(F)F)cc4)CC3)c(F)c2)CC1` (stereo not shown) [Example C2] it is 125 nM.
The figure for `CC1(Oc2c(F)cc(C3CCN(S(C)(=O)=O)CC3)cc2F)CN(Cc2ccc(C(F)(F)F)cc2)C1` [Example C3] is 644 nM; for `CS(=O)(=O)N1CCC(F)(c2cc(F)c(OC3CCN(Cc4nc(C(F)(F)F)no4)CC3)c(F)c2)CC1` [Example D1, 5-((4-(2,6-difluoro-4-(4-fluoro-1-(methylsulfonyl)piperidin-4-yl)phenoxy)piperidin-1-yl)methyl)-3-(trifluoromethyl)-1,2,4-oxadiazole] it is 199 nM.

For the origin of these results see patent US8575168B2, “Compounds and compositions as modulators of GPR119 activity” (IRM LLC, priority 2009, dated 2013).
